Source: patent US20130102631A1, “NOVEL MICROBIOCIDAL DIOXIME ETHER DERIVATIVES” (SYNGENTA CROP PROTECTION LLC, priority 2010, published 2013)

Legend:
[1] = test system: Puccinia recondita f. sp. tritici; experiment: Puccinia recondita f. sp. tritici / wheat / leaf disc preventative (brown rust); assay type: in vivo; details: foliar, wheat leaf segments cv Kanzler, inoculated 1 day after application, assessed 7-9 days after application
[2] = test system: Monographella nivalis (Microdochium nivale); experiment: Monographella nivalis (Microdochium nivale) / liquid culture (foot rot cereals); assay type: cell-based; details: at ≦200 ppm, liquid culture PDB, inhibition of growth photometrically 4-5 days after application, read-out: control of Monographella nivalis
Summary of the method: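 Microdochium nivale conidia in potato dextrose broth added to compound delivered in DMSO, then incubated at 24 °C. Growth inhibition measured photometrically 4-5 days after application.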

[3] = test system: Gaeumannomyces graminis; experiment: Gaeumannomyces graminis / liquid culture (take-all of cereals); assay type: cell-based; details: at ≦200 ppm, liquid culture PDB, inhibition of growth photometrically 4-5 days after application, read-out: control of Gaeumannomyces graminis
Summary of the method: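 Mycelial fragments of the fungus in potato dextrose broth were added to wells containing compound in DMSO. Plates were incubated at 24° C, and growth inhibition was read photometrically 4-5 days after application.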

[4] = test system: Pyrenophora teres; experiment: Pyrenophora teres / barley / leaf disc preventative (net blotch); assay type: in vivo; details: foliar, barley leaf segments cv Hasso, inoculated two days after application, assessed 5-7 days after application
[5] = test system: Glomerella lagenarium; experiment: Glomerella lagenarium (Colletotrichum lagenarium) / liquid culture (anthracnose); assay type: cell-based; details: Colletotrichum orbiculare; at ≦200 ppm, liquid culture PDB, inhibition of growth photometrically 3-4 days after application; read-out: control of Glomerella lagenarium
Summary of the method: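 Glomerella lagenarium conidia in potato dextrose broth added to test compound supplied in DMSO in microtiter wells. Plates incubated at 24° C.; growth inhibition measured photometrically 3-4 days after application.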

[6] = test system: Puccinia recondita f. sp. tritici; experiment: Puccinia recondita f. sp. tritici / wheat / leaf disc curative (brown rust); assay type: in vivo; details: foliar, wheat leaf segments cv Kanzler, 200 ppm applied 1 day after inoculation, assessed 6-8 days after application

C/C(=N\OCC1(CO/N=C2\CCCc3ccc(C)nc32)CC1)c1cc(C)cc(C)n1 [E/E-5.167]
≥ 80%: pest or weed control at 200 ppm [1] | inhibition of growth at up to 200 µg/mL [2] | inhibition of growth at up to 200 µg/mL [3] | pest or weed control at 200 ppm [4] | inhibition of growth at up to 200 µg/mL [5] | pest or weed control at 200 ppm [6]
